Values quoted from earlier work, collected in patent US20250255842A1, “S[…]-RESOLVING LIPID MEDIATORS FOR TREATING LONG COVID-19” (Solutex GC, S.L., priority 2022, published 2025).

Test system: thrombus
Conditions: administration of RvD4; less neutrophil infiltration, more pro-resolving monocytes

SMILES: CC/C=C\C[C@H](O)/C=C/C=C\C\C=C/C=C/C=C/[C@@H](O)[C@@H](O)CCC(=O)O [RvD4, 4S,5R,17S-trihydroxy-6E,8E,10Z,13Z,15E,19Z-docosahexaenoic acid]
- Thrombus burden: significantly reduced
